From PubChem BioAssay AID652187 (Sanford-Burnham Center for Chemical Genomics, 2013)
Activity calls are given as the source filed them.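 Rule for the calls: active = IC50 of 25 µM or lower, counted as toxic to worms; inactive = the rest.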

The molecules below were run on C. elegans VP596 worms, composite health score, 20-22 h (assay: nematode cytotoxicity of SKN-1 inhibitor analogs – whole organism, strain VP596, composite health score, round 1, cytotoxicity control for SKN-1 inhibitor project, SAR follow-up (AID 652187)).
For CCOc1cc(CNC2CCCCC2)cc(Cl)c1OCc1ccc(F)cc1, the IC50 was > 64 µM (inactive). For CCOc1cc(CNC2CCCC2)cc(Cl)c1OCc1cccc(F)c1, the IC50 was > 64 µM (inactive). Fc1ccc(-c2csc(-c3cccnc3)n2)cc1 was tested, and the IC50 was > 64 µM (inactive). For COc1ccc(-c2csc(-c3ccncc3)n2)cc1, the IC50 was > 64 µM (inactive). c1ccc(-c2csc(-c3cccnc3)n2)cc1 was tested, and the IC50 was 63.3 µM (inactive). CCOc1cc(CNC2CCCC2)cc(Cl)c1OCc1ccc(OC)cc1 was tested, and the IC50 was > 64 µM (inactive). In the case of Fc1ccc(COc2ccc(CNC3CCCC3)cc2Cl)cc1, the IC50 is reported as > 64 µM (inactive). CCOc1cc(CNC2CCC2)cc(Cl)c1OCc1ccc(F)cc1 was tested, and the IC50 was > 64 µM (inactive). With CCOc1cc(C(=O)NC2CCCC2)cc(Cl)c1OCc1ccc(F)cc1 the IC50 was > 64 µM (inactive). In the case of CCOc1cc(CNCc2ccccc2)cc(Cl)c1OCc1ccc(F)cc1, the IC50 is reported as > 64 µM (inactive). Cc1ccc(-c2csc(-c3cccnc3)n2)cc1 was tested, and the IC50 was 61.1 µM (inactive). In the case of CCOc1cc(CNC2CCCC2)ccc1OCc1ccc(F)cc1, the IC50 is reported as > 64 µM (inactive). With COc1cc(CNC2CCCC2)cc(Cl)c1OCc1ccc(F)cc1 the IC50 was > 64 µM (inactive). For CCOc1cc(CNC2CC2)cc(Cl)c1OCc1ccc(F)cc1, the IC50 was > 64 µM (inactive). For CCOc1cc(CNC2CCCC2)cc(Cl)c1OCc1ccc(F)cc1, the IC50 was > 64 µM (inactive). Clc1ccc(-c2csc(-c3cccnc3)n2)cc1 was tested, and the IC50 was > 64 µM (inactive). In the case of CCOc1cc(CNC2CCCC2)cc(Cl)c1OCc1ccccc1F, the IC50 is reported as > 64 µM (inactive). COc1ccc(-c2csc(-c3cccnc3)n2)cc1 was tested, and the IC50 was > 64 µM (inactive). For CCOc1cc(CNC2CCCC2)cc(Cl)c1OCc1ccc(Cl)cc1, the IC50 was > 64 µM (inactive). In the case of CCOc1cc(CNC2CCCC2)cc(Cl)c1OCc1ccccc1Cl, the IC50 is reported as > 64 µM (inactive). In the case of Cc1ccc(-c2csc(-c3ccncc3)n2)cc1, the IC50 is reported as > 64 µM (inactive). For Clc1ccc(-c2csc(-c3ccncc3)n2)cc1, the IC50 was < 64 µM (inactive). With c1ccc(-c2csc(-c3ccncc3)n2)cc1 the IC50 was > 64 µM (inactive). With CCOc1cc(CNC2CCCC2)cc(Cl)c1OCc1ccc(C)cc1 the IC50 was > 64 µM (inactive). For CCOc1cc(CNc2ccccc2)cc(Cl)c1OCc1ccc(F)cc1, the IC50 was > 64 µM (inactive). CCOc1cc(CNC(C)C)cc(Cl)c1OCc1ccc(F)cc1 was tested, and the IC50 was > 64 µM (inactive). For CCOc1cc(CNC2CCCC2)cc(Cl)c1OC, the IC50 was > 64 µM (inactive). For Fc1ccc(-c2csc(-c3ccncc3)n2)cc1, the IC50 was > 64 µM (inactive).
